The values that follow come from ChEMBL document CHEMBL3872207, “Aromatic heterocyclic esters of podophyllotoxin exert anti-MDR activity in human leukemia K562/ADR cells via ROS/MAPK signaling pathways” (Eur J Med Chem, 2016).

Test [1] can be described thus: Antiproliferative activity against human K562/ADR cells measured after 72 hrs by CCK8 assay. Format: functional, cell-based. A general note: Tetrazolium dyes change colour on reduction, which living cells bring about.
Test [2] is described as follows: Antiproliferative activity against human K562 cells measured after 72 hrs by CCK8 assay. The format is functional, cell-based. The settings on record: K562, 72 h.
Another test deals with K562. In words: Resistance index, ratio of IC50 for human K562/ADR cells to IC50 for human K562 cells. The format is functional.
Test [3] in a line: Potency index, ratio of etoposide IC50 to compound IC50 for antiproliferative activity against human K562/ADR cells. Format: functional.
Test [4] can be described thus: Potency index, ratio of doxorubicin IC50 to compound IC50 for antiproliferative activity against human K562/ADR cells. Format: functional.

Each structure is given as a SMILES string. pIC50: −log10 of the molar value.

Broadly, the pIC50 is the IC50 on a negative log10 scale, so that one unit is a factor of ten. Turning to `COc1cccc2c1C(=O)c1c(O)c3c(c(O)c1C2=O)C[C@@](O)(C(=O)CO)C[C@@H]3O[C@H]1C[C@H](N)[C@H](O)[C@H](C)O1` [DOXORUBICIN], the pIC50 in test [1] was 4.73; in test [2], 6.66. Moreover, the “Ratio IC50” value in the test with K562 was determined as 85.359.
On to `COc1cc([C@@H]2c3cc4c(cc3[C@H](OC(=O)c3cn(C5CC5)c5cc(Cl)c(F)cc5c3=O)[C@H]3COC(=O)[C@H]23)OCO4)cc(OC)c1OC`, for which the negative-log IC50 (pIC50) is 6.26 in test [1] and 6.52 in test [2]. Besides, the “Ratio IC50” value with K562 amounted to 1.803.
Regarding `COc1cc([C@@H]2c3cc4c(cc3[C@H](OC(=O)c3ccc5nc(C)ccc5c3)[C@H]3COC(=O)[C@H]23)OCO4)cc(OC)c1OC`, the figures for the negative-log IC50 (pIC50) in test [1] and in test [2] were 7.21 and 7.19, respectively. Further, in the test with K562, the “Ratio IC50” value is reported as 0.953.
Regarding `COc1cc([C@@H]2c3cc4c(cc3[C@H](OC(=O)c3cc(C)on3)[C@H]3COC(=O)[C@H]23)OCO4)cc(OC)c1OC`, the pIC50 in test [1] is 7.28; in test [2] it was 7.60. Besides, in the test with K562, the “Ratio IC50” value amounted to 2.08.
Consider `COc1cc([C@@H]2c3cc4c(cc3[C@@H](O[C@@H]3O[C@@H]5CO[C@@H](C)O[C@H]5[C@H](O)[C@H]3O)[C@H]3COC(=O)[C@H]23)OCO4)cc(OC)c1O` [ETOPOSIDE], for which the pIC50 is 5.66 in test [1] and 6.46 in test [2]. In addition, the “Ratio IC50” value in the test with K562 is reported as 6.408.
The corresponding values for `COc1cc([C@@H]2c3cc4c(cc3[C@H](OC(=O)c3cscn3)[C@H]3COC(=O)[C@H]23)OCO4)cc(OC)c1OC` are 7.13, 7.46 and 2.114.
On to `COc1cc([C@@H]2c3cc4c(cc3[C@H](OC(=O)c3cn(C)cn3)[C@H]3COC(=O)[C@H]23)OCO4)cc(OC)c1OC`, for which the values for the pIC50 in test [1] and in test [2] were 6.07 and 7.10, respectively. In the test on K562, the “Ratio IC50” value stood at 10.86.
With `COc1cc([C@@H]2c3cc4c(cc3[C@H](OC(=O)c3cc5ccccc5s3)[C@H]3COC(=O)[C@H]23)OCO4)cc(OC)c1OC`, the pIC50 in test [1] is 6.33; in test [2], 6.74. In the test with K562, the “Ratio IC50” value is listed as 2.532.
The corresponding values for `COc1cc([C@@H]2c3cc4c(cc3[C@H](OC(=O)c3nccc5ccccc35)[C@H]3COC(=O)[C@H]23)OCO4)cc(OC)c1OC` are 6.75, 7.19 and 2.765.
Regarding `COc1cc([C@@H]2c3cc4c(cc3[C@H](OC(=O)c3nn(C)c5ccccc35)[C@H]3COC(=O)[C@H]23)OCO4)cc(OC)c1OC`, the pIC50 in test [1] is 6.94; in test [2], 7.33. In the test with K562, the “Ratio IC50” value is 2.446.
As to `COc1cc([C@@H]2c3cc4c(cc3[C@H](OC(=O)c3cnn(C)c3)[C@H]3COC(=O)[C@H]23)OCO4)cc(OC)c1OC`, the pIC50 in test [1] was 6.86; in test [2], 7.28. Moreover, in the test on K562, the “Ratio IC50” value is on record as 2.673.
`COc1cc([C@@H]2c3cc4c(cc3[C@H](OC(=O)c3cnc5ccccc5n3)[C@H]3COC(=O)[C@H]23)OCO4)cc(OC)c1OC`: the results for the “Ratio IC50” value (in test [3]; in test [4]; in the test with K562) were 65.029, 552.323 and 1.545, respectively. Also, the negative-log IC50 (pIC50) in test [1] is 7.47; in test [2], 7.66.
